# Laboratory results as given in ChEMBL document CHEMBL1201862, “PubChem BioAssay data set” (2004).
#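 Grown in 96-well plates, cells were treated for 48 hours with each compound at five concentrations. Insufficient inhibition: endpoint recorded as highest concentration tested. GI50: concentration for 50% inhibition of growth.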 The source made the active and inactive calls. Cut-off read from the data, not from the text of the source: active = GI50 up to about 1.1 µM and inactive = higher.
# Experiments:
# Assay in all cases: NCI anticancer screen, dose series, 48 h
# [1] = system: UACC-62
# [2] = system: ACHN
# [3] = system: OVCAR-3
# [4] = system: DU-145
# [5] = system: HOP-62
# [6] = system: OVCAR-5
# [7] = system: HL-60
# [8] = system: LOX IMVI
# [9] = system: SF-295
# [10] = system: RXF 393
# [11] = system: MDA-MB-435
# [12] = system: RPMI-8226
# [13] = system: CCRF-CEM
# [14] = system: COLO 205
# [15] = system: SK-OV-3
# [16] = system: T47D
# [17] = system: SW-620
# [18] = system: MCF7
# [19] = system: TK-10
# [20] = system: NCI-H460
# [21] = system: M14
# [22] = system: NCI-H226
# [23] = system: SN12C
# [24] = system: UACC-257
# [25] = system: OVCAR-4
# [26] = system: UO-31
# [27] = system: SNB-75
# [28] = system: Malme-3M
# [29] = system: MDA-MB-231
# [30] = system: CAKI-1
# [31] = system: KM12
# [32] = system: SK-MEL-5
# [33] = system: PC-3
# [34] = system: IGROV-1
# [35] = system: SNB-19
# [36] = system: SR
# [37] = system: A549
# [38] = system: OVCAR-8
# [39] = system: HCT-15
# [40] = system: A498
# [41] = system: 786-0
# [42] = system: EKVX
# [43] = system: HCC 2998
# [44] = system: U-251
# [45] = system: NCI-H23
# [46] = system: Hs-578T
# [47] = system: SK-MEL-28
# [48] = system: HT-29
# [49] = system: NCI/ADR-RES
# [50] = system: SF-268
# [51] = system: HOP-92
# [52] = system: NCI-H522
# [53] = system: SF-539
# [54] = system: K562
# [55] = system: MOLT-4
# [56] = system: HCT-116
# [57] = system: MDA-N
# [58] = system: SK-MEL-2
structure (smiles),measurement,setting,value
O=c1[nH]nc(Cc2ccccc2)n1C1CC1,GI50,[1],> 100 µM (inactive)
same,GI50,[2],> 100 µM (inactive)
same,GI50,[3],> 100 µM (inactive)
same,GI50,[4],> 100 µM (inactive)
same,GI50,[5],> 100 µM (inactive)
same,GI50,[6],> 100 µM (inactive)
same,GI50,[7],> 100 µM (inactive)
same,GI50,[8],> 100 µM (inactive)
same,GI50,[9],> 100 µM (inactive)
same,GI50,[10],> 100 µM (inactive)
same,GI50,[11],> 100 µM (inactive)
same,GI50,[12],> 100 µM (inactive)
same,GI50,[13],> 100 µM (inactive)
same,GI50,[14],> 100 µM (inactive)
same,GI50,[15],> 100 µM (inactive)
same,GI50,[16],> 100 µM (inactive)
same,GI50,[17],> 100 µM (inactive)
same,GI50,[18],> 100 µM (inactive)
same,GI50,[19],> 100 µM (inactive)
same,GI50,[20],> 100 µM (inactive)
same,GI50,[21],> 100 µM (inactive)
same,GI50,[22],> 100 µM (inactive)
same,GI50,[23],> 100 µM (inactive)
same,GI50,[24],> 100 µM (inactive)
same,GI50,[25],> 100 µM (inactive)
same,GI50,[26],61.7 µM (inactive)
same,GI50,[27],> 100 µM (inactive)
same,GI50,[28],> 100 µM (inactive)
same,GI50,[29],> 100 µM (inactive)
same,GI50,[30],> 100 µM (inactive)
same,GI50,[31],> 100 µM (inactive)
same,GI50,[32],> 100 µM (inactive)
same,GI50,[33],> 100 µM (inactive)
same,GI50,[34],> 100 µM (inactive)
same,GI50,[35],> 100 µM (inactive)
same,GI50,[36],> 100 µM (inactive)
same,GI50,[37],> 100 µM (inactive)
same,GI50,[38],> 100 µM (inactive)
same,GI50,[39],> 100 µM
same,GI50,[40],> 100 µM (inactive)
same,GI50,[41],> 100 µM (inactive)
same,GI50,[42],> 100 µM (inactive)
same,GI50,[43],> 100 µM (inactive)
same,GI50,[44],> 100 µM (inactive)
same,GI50,[45],> 100 µM (inactive)
same,GI50,[46],> 100 µM (inactive)
same,GI50,[47],> 100 µM (inactive)
same,GI50,[48],> 100 µM (inactive)
same,GI50,[49],> 100 µM (inactive)
same,GI50,[50],> 100 µM (inactive)
same,GI50,[51],> 100 µM (inactive)
same,GI50,[52],> 100 µM (inactive)
same,GI50,[53],> 100 µM (inactive)
same,GI50,[54],> 100 µM (inactive)
same,GI50,[55],> 100 µM (inactive)
same,GI50,[56],> 100 µM (inactive)
same,GI50,[57],> 100 µM (inactive)
[O-][S+](C(c1ccccc1)=P(c1ccccc1)(c1ccccc1)c1ccccc1)c1ccc(Cl)cc1 (centres undefined),GI50,[2],26.4 µM (inactive)
same,GI50,[3],22.3 µM (inactive)
same,GI50,[4],13.9 µM (inactive)
same,GI50,[5],25.6 µM (inactive)
same,GI50,[6],41.9 µM (inactive)
same,GI50,[7],11.5 µM (inactive)
same,GI50,[8],20.6 µM (inactive)
same,GI50,[9],33.7 µM (inactive)
same,GI50,[10],21.3 µM (inactive)
same,GI50,[11],11.7 µM (inactive)
same,GI50,[12],6.98 µM (inactive)
same,GI50,[13],20.9 µM (inactive)
same,GI50,[15],24.4 µM (inactive)
same,GI50,[16],7.83 µM (inactive)
same,GI50,[17],23.6 µM (inactive)
same,GI50,[18],17.9 µM (inactive)
same,GI50,[19],31.9 µM (inactive)
same,GI50,[20],24.2 µM (inactive)
same,GI50,[21],25.5 µM (inactive)
same,GI50,[22],55.7 µM (inactive)
same,GI50,[24],12.5 µM (inactive)
same,GI50,[25],17.1 µM (inactive)
same,GI50,[26],46.1 µM (inactive)
same,GI50,[27],60.4 µM (inactive)
same,GI50,[29],19.3 µM (inactive)
same,GI50,[30],60.5 µM (inactive)
same,GI50,[31],14.2 µM (inactive)
same,GI50,[32],12.1 µM (inactive)
same,GI50,[33],23.2 µM (inactive)
same,GI50,[34],21.8 µM (inactive)
same,GI50,[36],19.5 µM (inactive)
same,GI50,[38],28.1 µM (inactive)
same,GI50,[39],34.9 µM
same,GI50,[40],11.1 µM (inactive)
same,GI50,[41],30.8 µM (inactive)
same,GI50,[42],27.3 µM (inactive)
same,GI50,[43],28.4 µM (inactive)
same,GI50,[44],21.2 µM (inactive)
same,GI50,[45],26.7 µM (inactive)
same,GI50,[46],19.8 µM (inactive)
same,GI50,[47],22 µM (inactive)
same,GI50,[48],21.3 µM (inactive)
same,GI50,[49],66.7 µM (inactive)
same,GI50,[50],20.4 µM (inactive)
same,GI50,[58],20.8 µM (inactive)
same,GI50,[51],13.1 µM (inactive)
same,GI50,[52],11.8 µM (inactive)
same,GI50,[53],60 µM (inactive)
same,GI50,[54],14.2 µM (inactive)
same,GI50,[55],29.1 µM (inactive)
same,GI50,[56],20.7 µM (inactive)
same,GI50,[57],13.3 µM (inactive)
